# Results taken from ChEMBL document CHEMBL4295262, “Evaluation of the utility of stem-cell derived cardiomyocytes for drug proarrhythmic potential” (2019).
# How the values were obtained:
# [1] = (§1) Electrical activity assay on cell lines treated with a given drug. DMSO was used as a vehicle and a control, unblinded dofetilide was used as a control.; details: human, ipsc-cm
# [2] = as §1; format: ADME, cell-based; design: FPDc: unit not given here; details: human, ipsc-cm
# [3] = as §1; format: cell-based; design: APDc: unit not given here; details: human, ipsc-cm
# [4] = as §1; details: human, ipsc-cm; remark: listed apart in the source
# [5] = as §1; format: ADME, cell-based; details: human, ipsc-cm, 0.005 µM; concentration (um) 0.005 uM
# [6] = as §1; details: human, ipsc-cm, 0.003 µM
# [7] = as §1; details: human, ipsc-cm; remark: listed apart in the source
# [8] = as §1; format: ADME, cell-based; design: FPDc: unit not given here; details: human, ipsc-cm, 0.003 µM; concentration (um) 0.003 uM
# [9] = as §1; format: ADME, cell-based; details: human, ipsc-cm, 0.003 µM; concentration (um) 0.003 uM
# [10] = 0.01 µM, concentration (um) 0.01 uM
# [11] = 0.1 µM, concentration (um) 0.1 uM
# [12] = 10 µM, concentration (um) 10 uM
# [13] = 0.0032 µM, concentration (um) 0.0032 uM
# [14] = 0.0003169 µM, concentration (um) 0.000316912 uM
# [15] = 0.001001 µM, concentration (um) 0.00100144 uM
# [16] = 0.003165 µM, concentration (um) 0.00316456 uM
# [17] = 0.005 µM, concentration (um) 0.005 uM
compound,measurement,setting,value
CN1CCN(CCCCN2C(=O)CN(/N=C/c3ccc(-c4ccc(Cl)cc4)o3)C2=O)CC1 [AZIMILIDE],FPD measurement,[1]; 0.01 µM,55.32 FPDc
same,FPDc,[1]; 0.01 µM,55.32
same,FPD measurement,[1]; 0.1 µM,56.52 FPDc
same,FPDc,[1]; 0.1 µM,56.52
same,FPD measurement,[1]; 1 µM,77.06 FPDc
same,FPDc,[1]; 1 µM,77.06
same,FPD measurement,[1]; 10 µM,5 Values Out Of 5 Were Excluded Due To Quiescence Or 0 Fpdc
same,FPDc,[1]; 10 µM,5 Values Out Of 5 Were Excluded Due To Quiescence Or 0 Fpdc
same,FPDc,[2]; [10],0.03892
same,FPDc,[2]; [11],0.04044
same,FPDc,"[2]; 1 µM, concentration (um) 1 uM",0.04651
same,FPDc,[2]; [12],0.06031
same,APDc,[3]; [10],52.41
same,FPD measurement,[3]; [10],52.41 FPDc
same,APDc,[3]; [11],47.87
same,FPD measurement,[3]; [11],47.87 FPDc
same,APDc,"[3]; 1 µM, concentration (um) 1 uM",63.58
same,FPD measurement,"[3]; 1 µM, concentration (um) 1 uM",63.58 FPDc
same,APDc,[3]; [12],121.3
same,FPD measurement,[3]; [12],121.3 FPDc
same,FPDc,[4]; 0.01 µM,73.84
same,FPDc,[4]; 0.1 µM,69.12
same,FPDc,[4]; 1 µM,More Than Half The Wells Had A Quiescence Event Or Fpdc Readings Of 0
same,FPDc,[4]; 10 µM,More Than Half The Wells Had A Quiescence Event Or Fpdc Readings Of 0
CN(CCOc1ccc(NS(C)(=O)=O)cc1)CCc1ccc(NS(C)(=O)=O)cc1 [DOFETILIDE],FPD measurement,[1]; 0.0003169 µM,57.26 FPDc
same,FPDc,[1]; 0.0003169 µM,57.26
same,FPD measurement,[1]; 0.001001 µM,62.9 FPDc
same,FPDc,[1]; 0.001001 µM,62.9
same,FPD measurement,[1]; 0.003 µM,58.92 FPDc
same,FPDc,[1]; 0.003 µM,58.92
same,FPD measurement,[1]; 0.003165 µM,74.44 FPDc
same,FPDc,[1]; 0.003165 µM,74.44
same,FPD measurement,[1]; 0.0033 µM,77.41 FPDc
same,FPDc,[1]; 0.0033 µM,77.41
same,FPD measurement,[1]; 0.01 µM,More Than Half The Wells Had A Quiescence Event Or Fpdc Readings Of 0
same,FPDc,[1]; 0.01 µM,More Than Half The Wells Had A Quiescence Event Or Fpdc Readings Of 0
same,FPD measurement,[5],59.84 FPDc
same,FPDc,[5],24 Values Out Of 24 Were Excluded Due To Quiescence Or 0 Fpdc
same,FPDc,"[2]; 0.0003 µM, concentration (um) 0.0003 uM",0.03867
same,FPDc,"[2]; 0.001 µM, concentration (um) 0.001 uM",0.04061
same,FPDc,"[2]; 0.003 µM, concentration (um) 0.003 uM",0.05119
same,FPD measurement,[2]; [13],More Than Half The Wells Had A Quiescence Event Or Fpdc Readings Of 0
same,FPDc,[2]; [13],More Than Half The Wells Had A Quiescence Event Or Fpdc Readings Of 0
same,FPD measurement,[2]; [10],More Than Half The Wells Had A Quiescence Event Or Fpdc Readings Of 0
same,FPDc,[2]; [10],More Than Half The Wells Had A Quiescence Event Or Fpdc Readings Of 0
same,APDc,[3]; [14],62.54
same,FPD measurement,[3]; [14],62.54 FPDc
same,APDc,[3]; [15],77.55
same,FPD measurement,[3]; [15],77.55 FPDc
same,APDc,[3]; [16],79.29
same,FPD measurement,[3]; [16],79.29 FPDc
same,APDc,[3]; [17],61.92
same,FPD measurement,[3]; [17],61.92 FPDc
same,APDc,[6],63.81
same,FPD measurement,[6],63.81 FPDc
same,FPD measurement,[7]; 0.0003169 µM,1 Values Out Of 1 Were Excluded Due To Quiescence Or 0 Fpdc
same,FPDc,[7]; 0.0003169 µM,1 Values Out Of 1 Were Excluded Due To Quiescence Or 0 Fpdc
same,FPD measurement,[7]; 0.001001 µM,1 Values Out Of 1 Were Excluded Due To Quiescence Or 0 Fpdc
same,FPDc,[7]; 0.001001 µM,1 Values Out Of 1 Were Excluded Due To Quiescence Or 0 Fpdc
same,FPD measurement,[7]; 0.003165 µM,1 Values Out Of 1 Were Excluded Due To Quiescence Or 0 Fpdc
same,FPDc,[7]; 0.003165 µM,1 Values Out Of 1 Were Excluded Due To Quiescence Or 0 Fpdc
same,FPD measurement,[7]; 0.01 µM,1 Values Out Of 1 Were Excluded Due To Quiescence Or 0 Fpdc
same,FPDc,[7]; 0.01 µM,1 Values Out Of 1 Were Excluded Due To Quiescence Or 0 Fpdc
same,FPDc,[8],32.45
same,FPD measurement,[9],More Than Half The Wells Had A Quiescence Event Or Apdc Readings Of 0
same,FPDc,[9],More Than Half The Wells Had A Quiescence Event Or Fpdc Readings Of 0
same,FPD measurement,[4]; 0.0003169 µM,5 Values Out Of 5 Were Excluded Due To Quiescence Or 0 Apdc
same,FPDc,[4]; 0.0003169 µM,74.54
same,FPD measurement,[4]; 0.001001 µM,5 Values Out Of 5 Were Excluded Due To Quiescence Or 0 Apdc
same,FPDc,[4]; 0.001001 µM,77.51
same,FPDc,[4]; 0.003 µM,91.98
same,FPD measurement,[4]; 0.003165 µM,5 Values Out Of 5 Were Excluded Due To Quiescence Or 0 Apdc
same,FPDc,[4]; 0.003165 µM,81.19
same,FPD measurement,[4]; 0.01 µM,5 Values Out Of 5 Were Excluded Due To Quiescence Or 0 Apdc
same,FPDc,[4]; 0.01 µM,More Than Half The Wells Had A Quiescence Event Or Fpdc Readings Of 0
CC(C)COCC(CN(Cc1ccccc1)c1ccccc1)N1CCCC1 (configuration not stated) [BEPRIDIL],FPDc,[2]; [10],0.04073
same,FPDc,[2]; [11],0.0376
same,FPDc,"[2]; 1 µM, concentration (um) 1 uM",0.04541
same,FPD measurement,[2]; [12],More Than Half The Wells Had A Quiescence Event Or Fpdc Readings Of 0
same,FPDc,[2]; [12],More Than Half The Wells Had A Quiescence Event Or Fpdc Readings Of 0
same,APDc,[3]; [10],52.45
same,FPD measurement,[3]; [10],52.45 FPDc
same,APDc,[3]; [11],43.71
same,FPD measurement,[3]; [11],43.71 FPDc
same,APDc,"[3]; 1 µM, concentration (um) 1 uM",57.33
same,FPD measurement,"[3]; 1 µM, concentration (um) 1 uM",57.33 FPDc
same,FPDc,[4]; 0.01 µM,70.33
same,FPDc,[4]; 0.1 µM,77.75
same,FPD measurement,[4]; 1 µM,5 Values Out Of 5 Were Excluded Due To Quiescence Or 0 Apdc
same,FPDc,[4]; 1 µM,78.3
same,FPD measurement,[4]; 10 µM,More Than Half The Wells Had A Quiescence Event Or Apdc Readings Of 0
same,FPDc,[4]; 10 µM,More Than Half The Wells Had A Quiescence Event Or Fpdc Readings Of 0
